Laboratory results from patent US20180099931A1 (AbbVie S.à.r.l., priority 2016, published 2018).
Read-outs that look alike come from different tables or passages of the source.

Molecular target: T1, F508delCFTR (Homo sapiens, UniProt P13569, DEL508-508)
T1 construct: expressed in transfected cells; host or cells: CFBE41o- human lung-derived epithelial cells (CFBE4lo-F508delCFTR-HRP), doxycycline-inducible
Test: Cell Surface Expression-Horse Radish Peroxidase (CSE-HRP) Assay;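 for Maximum % activity (with co-corrector): co-corrector and positive control are both the same reference corrector at 2 µM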;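 for Maximum % activity (without co-corrector): percent of the 2 µM on-plate positive control corrector response above DMSO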
Type: cell-based
Conditions: for Emax / Maximum % activity (with co-corrector): maximum at any tested concentration, normalized to on-plate positive control; for Emax: read-out: Maximum % activity (without co-corrector)

[1] = test compound without co-corrector
[2] = test compound without co-corrector, read-out: EC50 (without co-corrector)
[3] = with co-corrector (2 μM of 3-[(2R,4R)-4-({[1-(2,2-difluoro-1,3-benzodioxol-5-yl)cyclopropyl]carbonyl}amino)-7-methoxy-3,4-dihydro-2H-chromen-2-yl]benzoic acid)
[4] = with co-corrector (2 μM of 3-[(2R,4R)-4-({[1-(2,2-difluoro-1,3-benzodioxol-5-yl)cyclopropyl]carbonyl}amino)-7-methoxy-3,4-dihydro-2H-chromen-2-yl]benzoic acid), read-out: EC50 (with co-corrector)
[5] = CSE-HRP, test compound without co-corrector, read-out: EC50 (without co-corrector)
[6] = CSE-HRP, with co-corrector (2 μM of 3-[(2R,4R)-4-({[1-(2,2-difluoro-1,3-benzodioxol-5-yl)cyclopropyl]carbonyl}amino)-7-methoxy-3,4-dihydro-2H-chromen-2-yl]benzoic acid), read-out: EC50 (with co-corrector)
[7] = CSE-HRP, with co-corrector (2 μM)

T1 sequence (P13569 with tags, fused parts or gaps DEL508-508): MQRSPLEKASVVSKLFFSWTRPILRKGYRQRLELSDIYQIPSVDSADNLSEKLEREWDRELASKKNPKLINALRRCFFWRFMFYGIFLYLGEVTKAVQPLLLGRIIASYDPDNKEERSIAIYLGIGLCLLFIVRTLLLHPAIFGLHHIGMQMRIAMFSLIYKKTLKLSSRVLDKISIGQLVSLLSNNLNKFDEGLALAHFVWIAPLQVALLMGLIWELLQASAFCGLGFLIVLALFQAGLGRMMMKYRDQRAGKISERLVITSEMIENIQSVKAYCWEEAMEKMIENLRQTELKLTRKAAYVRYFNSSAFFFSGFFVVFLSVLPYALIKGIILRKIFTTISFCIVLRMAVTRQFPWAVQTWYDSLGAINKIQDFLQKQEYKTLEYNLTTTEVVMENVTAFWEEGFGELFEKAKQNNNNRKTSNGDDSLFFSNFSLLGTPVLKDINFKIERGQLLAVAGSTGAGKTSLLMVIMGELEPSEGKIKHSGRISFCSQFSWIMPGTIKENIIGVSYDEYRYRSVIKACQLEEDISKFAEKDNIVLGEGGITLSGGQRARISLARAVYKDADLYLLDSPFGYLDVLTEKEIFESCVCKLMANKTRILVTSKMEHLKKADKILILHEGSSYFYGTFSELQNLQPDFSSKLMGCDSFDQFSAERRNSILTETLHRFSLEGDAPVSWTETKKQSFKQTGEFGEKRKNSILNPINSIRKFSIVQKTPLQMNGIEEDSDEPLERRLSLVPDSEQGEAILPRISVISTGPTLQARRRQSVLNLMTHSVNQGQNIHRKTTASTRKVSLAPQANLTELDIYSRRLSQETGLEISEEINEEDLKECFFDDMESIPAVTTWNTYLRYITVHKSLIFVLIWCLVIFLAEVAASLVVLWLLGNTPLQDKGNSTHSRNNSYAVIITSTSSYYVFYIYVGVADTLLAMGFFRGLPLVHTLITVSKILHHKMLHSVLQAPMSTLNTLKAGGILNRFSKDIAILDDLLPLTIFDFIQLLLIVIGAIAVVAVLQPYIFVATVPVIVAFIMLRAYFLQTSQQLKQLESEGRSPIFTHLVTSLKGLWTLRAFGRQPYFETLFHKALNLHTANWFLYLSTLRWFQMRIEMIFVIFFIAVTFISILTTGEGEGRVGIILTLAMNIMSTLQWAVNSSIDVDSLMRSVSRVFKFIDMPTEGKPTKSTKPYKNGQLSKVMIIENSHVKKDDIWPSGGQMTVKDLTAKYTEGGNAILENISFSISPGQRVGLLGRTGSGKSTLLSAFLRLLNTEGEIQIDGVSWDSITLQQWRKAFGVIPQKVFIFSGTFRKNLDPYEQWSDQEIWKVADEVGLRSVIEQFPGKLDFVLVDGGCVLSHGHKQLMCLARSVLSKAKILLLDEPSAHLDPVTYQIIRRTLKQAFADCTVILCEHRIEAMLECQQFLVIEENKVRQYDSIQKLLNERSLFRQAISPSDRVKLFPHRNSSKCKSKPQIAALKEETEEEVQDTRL

SMILES	Emax [1]	EC50 [2]	Maximum % activity (with co-corrector) [3]	EC50 [4]	EC50 [5]	EC50 [6]	Maximum % activity (with co-corrector) [7]	Emax (CSE-HRP, without co-corrector)	Maximum % activity (with co-corrector) (with co-corrector (2 μM))	Emax (without co-corrector)
Cc1cc(C(F)(F)F)cc(N[C@H]2[C@H](C(C)(C)C)[C@@H](C(=O)O)N(C(=O)C3CCCCO3)[C@H]2c2cccnc2N(C)C)n1 (relative stereo) [II-504]	< 100%	1 to 10 µM	++ (≥150 and <350)	1 to 10 µM	–	–	–	–	–	–
O=C(O)[C@H]1[C@H](C2CC2)[C@@H](Nc2cc(C(F)(F)F)ccn2)[C@@H](c2ccccc2)N1C(=O)C1CCCCC1 (racemic) [III-33]	< 100%	1 to 10 µM	++ (≥150 and <350)	1 to 10 µM	–	–	–	–	–	–
COc1ccc(C(F)(F)F)cc1CN[C@H]1[C@H](C(C)(C)C)[C@@H](C(=O)O)N(C(=O)C2CCc3cc(C)ccc3O2)[C@H]1c1ccccc1 (stereo partly drawn) [II-397]	100 to 200%	1 to 10 µM	+++ (≥350)	< 1 µM	–	–	–	–	–	–
CCOc1ccc(Br)cc1CN[C@H]1[C@H](C(C)(C)C)[C@@H](C(=O)O)N(C(=O)C2CCCCC2)[C@H]1c1ccccc1 [II-126]	–	–	–	–	1 to 10 µM	1 to 10 µM	+++ (≥350)	100 to 200%	–	–
COc1ccc(Cl)cc1CN[C@@H]1[C@@H](C(C)(C)C)[C@H](C(=O)O)N(C(=O)C2CCCCC2)[C@@H]1c1ccccn1 (racemic) [III-61]	< 100%	1 to 10 µM	+++ (≥350)	1 to 10 µM	–	–	–	–	–	–
COc1ncc(C(F)(F)F)cc1CN[C@H]1[C@H](C(C)(C)C)[C@@H](C(=O)O)N(C(=O)OC(C)C)[C@H]1c1ccccc1 [II-425]	> 200%	1 to 10 µM	+++ (≥350)	1 to 10 µM	–	–	–	–	–	–
COc1ccc(OC(F)(F)F)cc1CN[C@H]1[C@H](C(C)(C)C)[C@@H](C(=O)O)N(C(=O)C2CCCCC2)[C@H]1c1cccnc1OC [II-524]	100 to 200%	1 to 10 µM	+++ (≥350)	1 to 10 µM	–	–	–	–	–	–
COc1ccc(C(F)(F)F)cc1CN[C@H]1[C@H](C(C)(C)C)[C@@H](C(=O)O)N(C(=O)[C@@H]2CCCCO2)[C@H]1c1ccccc1Br [Example I-290]	–	–	–	–	1 to 10 µM	1 to 10 µM	+++ (≥350)	> 200%	–	–
COc1ccc(-c2cnn(C)c2)cc1CN[C@H]1[C@H](C(C)(C)C)[C@@H](C(=O)O)N(C(=O)C2CCCCC2)[C@H]1c1ccccc1 [III-186]	< 100%	1 to 10 µM	–	1 to 10 µM	–	–	–	–	++ (≥150 and <350)	–
COc1ncccc1NC1CC(N[C@H]2[C@H](C(C)(C)C)[C@@H](C(=O)O)N(C(=O)OC(C)C)[C@H]2c2ccccc2C2CC2)C1 (stereo partly drawn) [Example I-276]	–	–	–	–	1 to 10 µM	1 to 10 µM	+++ (≥350)	100 to 200%	–	–
COc1ccc(C(C)(C)C)cc1CN[C@H]1[C@H](C(C)(C)C)[C@@H](C(=O)O)N(C(=O)[C@@H]2CCCCO2)[C@H]1c1ccccc1C [Example 110, (2S,3S,4S,5S)-3-tert-butyl-4-{[(5-tert-butyl-2-methoxyphenyl)methyl]amino}-5-(2-methylphenyl)-1-[(2S)-oxane-2-carbonyl]pyrrolidine-2-carboxylic acid]	–	1 to 10 µM	–	< 1 µM	–	–	–	–	+++ (≥350)	> 200%
COc1ccc(C(C)(C)C)cc1CN[C@H]1[C@H](C(C)(C)C)[C@@H](C(=O)O)N(C(=O)[C@H]2CCCCO2)[C@H]1c1ccccc1F [Example 50, (2S,3S,4S,5S)-3-tert-butyl-4-{[(5-tert-butyl-2-methoxyphenyl)methyl]amino}-5-(2-fluorophenyl)-1-[(2R)-oxane-2-carbonyl]pyrrolidine-2-carboxylic acid]	–	1 to 10 µM	–	1 to 10 µM	–	–	–	–	+++ (≥350)	100 to 200%
COc1cc(-c2ccccc2)ccc1CN[C@@H]1[C@@H](C(C)(C)C)[C@H](C(=O)O)N(C(=O)OC(C)C)[C@@H]1c1ccccc1 (racemic) [III-92]	< 100%	> 10 µM	+ (<150)	> 10 µM	–	–	–	–	–	–
CC(C)c1ccccc1CN[C@H]1[C@H](C(C)(C)C)[C@@H](C(=O)O)N(C(=O)C2CCCCC2)[C@H]1c1ccccc1 [II-166]	–	–	–	–	< 1 µM	< 1 µM	+++ (≥350)	100 to 200%	–	–
COc1ncc(C(F)(F)F)cc1CN[C@H]1[C@H](C(C)(C)C)[C@@H](C(=O)O)N(C(=O)C2CCCCC2)[C@H]1c1cccnc1N(C)C [Example I-120]	–	1 to 10 µM	–	1 to 10 µM	–	–	–	–	+++ (≥350)	100 to 200%
CCC(C)c1cnc(OC)c(CN[C@H]2[C@H](C(C)(C)C)[C@@H](C(=O)O)N(C(=O)C3CCCCC3)[C@H]2c2ccccc2)c1 (stereo partly drawn) [Example I-70]	–	1 to 10 µM	–	< 1 µM	–	–	–	–	+++ (≥350)	> 200%
COc1ccc(C(C)(C)C)cc1CN[C@H]1[C@H](C(C)(C)C)[C@@H](C(=O)O)N(C(=O)OC(C)(C)C)[C@H]1c1cccnc1OC [Example I-232]	–	1 to 10 µM	–	1 to 10 µM	–	–	–	–	+++ (≥350)	> 200%
COc1cccc([C@H]2[C@@H](Nc3cc(C(F)(F)F)cc(C)n3)[C@H](C(C)(C)C)[C@@H](C(=O)O)N2C(=O)C2CCCCC2)n1 (racemic) [III-97]	< 100%	1 to 10 µM	–	1 to 10 µM	–	–	–	–	++ (≥150 and <350)	–
COc1ccc(C2(C)CCC2)cc1CN[C@H]1[C@H](C(C)(C)C)[C@@H](C(=O)O)N(C(=O)C2CCC2)[C@H]1c1ccccc1C(F)(F)F [Example I-279]	–	–	–	–	1 to 10 µM	1 to 10 µM	+++ (≥350)	100 to 200%	–	–
COc1ncc(C2CCC2)cc1CN[C@H]1[C@H](C(C)(C)C)[C@@H](C(=O)O)N(C(=O)[C@@H]2CCCO2)[C@H]1c1ccccc1C [Example I-265]	–	–	–	–	1 to 10 µM	1 to 10 µM	+++ (≥350)	> 200%	–	–
COc1cc(C(F)(F)F)cc(N[C@@H]2[C@@H](C(C)(C)C)[C@H](C(=O)O)N(C(=O)C3CCCCC3)[C@@H]2c2ccccc2)n1 (racemic) [Example 2, rac-(2R,3R,4R,5R)-3-tert-butyl-1-(cyclohexanecarbonyl)-4-{[6-methoxy-4-(trifluoromethyl)pyridin-2-yl]amino}-5-phenylpyrrolidine-2-carboxylic acid]	–	1 to 10 µM	–	1 to 10 µM	–	–	–	–	+++ (≥350)	< 100%
COc1ccc(Br)nc1CN[C@H]1[C@H](C(C)(C)C)[C@@H](C(=O)O)N(C(=O)C2CCCCC2)[C@H]1c1ccccc1 [Example I-134]	–	1 to 10 µM	–	1 to 10 µM	–	–	–	–	+++ (≥350)	100 to 200%
CC(C)OC(=O)N1[C@H](C(=O)O)[C@@H](C(C)(C)C)[C@H](NCC(C)(C)c2ccccc2)[C@@H]1c1ccccc1 [Example I-264]	–	–	–	–	1 to 10 µM	1 to 10 µM	++ (≥150 and <350)	< 100%	–	–
COc1ccc(C(C)(C)C)cc1CN[C@H]1[C@H](C(C)(C)C)[C@@H](C(=O)O)N(C(=O)[C@@H]2C[C@H]3CC[C@@H]2O3)[C@H]1c1ccccc1 (relative stereo) [Example I-241]	–	1 to 10 µM	–	1 to 10 µM	–	–	–	–	+++ (≥350)	> 200%
CC(C)(C)[C@@H]1[C@@H](NCc2cc(C(F)(F)F)ccc2OCCCF)[C@@H](c2ccccc2)N(C(=O)C2CCCCC2)[C@H]1C(=O)O (racemic) [III-85]	< 100%	> 10 µM	++ (≥150 and <350)	1 to 10 µM	–	–	–	–	–	–
COc1ccc(C(C)C)cc1CN[C@H]1[C@H](C(C)(C)OC)[C@@H](C(=O)O)N(C(=O)C2CCCCC2)[C@H]1c1ccccc1 [II-258]	–	–	–	–	1 to 10 µM	< 1 µM	+++ (≥350)	> 200%	–	–
COc1ccc(C(C)(C)C)cc1CN[C@H]1[C@H](C(C)(C)C)[C@@H](C(=O)O)N(C(=O)[C@@H]2CCC[C@@H](OC)C2)[C@H]1c1cccnc1N(C)C (relative stereo) [II-449]	> 200%	1 to 10 µM	+++ (≥350)	< 1 µM	–	–	–	–	–	–
COc1ccc(C(C)(C)C)cc1CN[C@H]1[C@H](C(C)(C)C)[C@@H](C(=O)O)N(C(=O)[C@@H]2CCCCO2)[C@H]1c1ccccc1F [II-460]	> 200%	1 to 10 µM	+++ (≥350)	< 1 µM	–	–	–	–	–	–
COc1ccc(C(F)(F)F)cc1CN[C@H]1[C@H](C(C)(C)OC)[C@@H](C(=O)O)N(C(=O)C2CCCCC2)[C@H]1c1cccnc1N(C)C [II-437]	> 200%	1 to 10 µM	+++ (≥350)	1 to 10 µM	–	–	–	–	–	–
COc1ccc(C(C)(C)C)cc1CN[C@H]1[C@H](C(C)(C)C)[C@@H](C(=O)O)N(C(=O)c2cnn(-c3cccc(C)c3)c2C(C)C)[C@H]1c1ccccc1 [III-194]	100 to 200%	1 to 10 µM	–	< 1 µM	–	–	–	–	+++ (≥350)	–
